Experimental data published in patent publication US12077503B2, “Substituted cyclic amides and their use as herbicides” (FMC CORPORATION, priority 2015, dated 2024).
Where two headings read alike, the source gives them in different places.

Assays:
Assay type in all cases: in vivo
[1] = tested on: barnyardgrass (Echinochloa crus-galli); assay: Test B flooded paddy test; settings: Echinochloa crus-galli, Flood, 250 g ai/ha; scale of 0 to 100 where 0 is no effect and 100 is complete control; read-out: Barnyardgrass plant response rating
Method in brief: (§1)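 2-leaf plants; pots flooded 3 cm over soil; cpd added to paddy water; depth held; greenhouse 13–15 d; visual rating vs controls, 0 = no effect, 100 = complete control.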

[2] = tested on: sedge, umbrella (small-flower umbrella sedge, Cyperus difformis); assay: Test B flooded paddy test; settings: Cyperus difformis, Flood, 250 g ai/ha; scale of 0 to 100 where 0 is no effect and 100 is complete control; read-out: Sedge, Umbrella plant response rating
Method in brief: as §1

[3] = tested on: ducksalad (Heteranthera limosa); assay: Test B flooded paddy test; settings: Heteranthera limosa, Flood, 250 g ai/ha; scale of 0 to 100 where 0 is no effect and 100 is complete control; read-out: Ducksalad plant response rating
Method in brief: as §1

rice (Oryra sativa) = assay: Test B flooded paddy test; settings: Oryza sativa, Flood, 250 g ai/ha; scale of 0 to 100 where 0 is no effect and 100 is complete control; read-out: Rice plant response rating
Method in brief: as §1

[4] = tested on: barnyardgrass (Echinochloa crus-galli); assay: Test A postemergence; settings: Echinochloa crus-galli, post-emergence, 240 h, 125 g ai/ha
Method in brief: (§2)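 Preemergence directed soil spray on seeded pots, or postemergence application to plants 2–10 cm, one- to two-leaf. Solvent mixture non-phytotoxic, with surfactant. Scored ~10 d later, visually, 0–100 vs untreated.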

[5] = tested on: giant foxtail (Setaria faberii); assay: Test A postemergence; settings: Setaria faberi, post-emergence, 240 h, 125 g ai/ha
Method in brief: as §2

[6] = tested on: blackgrass (Alopecurus myosuroides); assay: Test A postemergence; settings: Alopecurus myosuroides, post-emergence, 240 h, 125 g ai/ha
Method in brief: as §2

[7] = tested on: Galium (catchweed bedstraw, Galium aparine); assay: Test A postemergence; settings: Galium, post-emergence, 240 h, 125 g ai/ha
Method in brief: as §2

corn (Zea mays) = assay: Test A postemergence; settings: Zea mays, post-emergence, 240 h, 125 g ai/ha
Method in brief: as §2

[8] = tested on: wheat (Triticum aestivum); assay: Test A postemergence; settings: Triticum aestivum, post-emergence, 240 h, 125 g ai/ha
Method in brief: as §2

[9] = tested on: pigweed (Amaranthus retroflexus); assay: Test A postemergence; settings: Amaranthus retroflexus, post-emergence, 240 h, 125 g ai/ha
Method in brief: as §2

[10] = tested on: ragweed (common ragweed, Ambrosia elatior); assay: Test A postemergence; settings: Ambrosia artemisiifolia, post-emergence, 240 h, 125 g ai/ha
Method in brief: as §2

[11] = tested on: ryegrass, Italian (Italian ryegrass, Lolium multiflorum); assay: Test A postemergence; settings: Lolium multiflorum, post-emergence, 240 h, 125 g ai/ha
Method in brief: as §2

Kochia (Kochia scoparia) = assay: Test A postemergence; settings: Bassia scoparia, post-emergence, 240 h, 125 g ai/ha
Method in brief: as §2

[12] = tested on: barnyardgrass (Echinochloa crus-galli); assay: Test A preemergence; settings: Echinochloa crus-galli, pre-emergence, 240 h; for pest or weed control at 125 g/ha: 125 g ai/ha, 0 to 100 scale where 0 is no effect and 100 is complete control; for pest or weed control at 500 g/ha: 500 g ai/ha
Method in brief: as §2

[13] = preemergence, read-out: Barnyardgrass plant response rating

SMILES: Cc1cccc(NC(=O)[C@H]2C(=O)N(C)C[C@@H]2c2ccc(C(F)(F)F)cc2)c1C [Compound 941]
- pest or weed control at 250 g/ha [1]: 0%
- pest or weed control at 250 g/ha [2]: 0%
- pest or weed control at 250 g/ha [3]: 35%
- pest or weed control at 250 g/ha (rice (Oryra sativa)): 0%
- pest or weed control at 125 g/ha ([4]; Postemergence, visual injury after approximately 10 d, 0 to 100 scale where 0 is no effect and 100 is complete control, read-out: Plant response rating, Barnyardgrass): 50%
- pest or weed control at 125 g/ha ([5]; Postemergence, visual injury after approximately 10 d, 0 to 100 scale where 0 is no effect and 100 is complete control, read-out: Plant response rating, Foxtail, Giant): 60%
- pest or weed control at 125 g/ha ([6]; Postemergence, visual injury after approximately 10 d, 0 to 100 scale where 0 is no effect and 100 is complete control, read-out: Plant response rating, Blackgrass): 0%
- pest or weed control at 125 g/ha ([7]; Postemergence, visual injury after approximately 10 d, 0 to 100 scale where 0 is no effect and 100 is complete control, read-out: Plant response rating, Galium): 20%
- Corn plant response rating (crop injury, 0 = no effect, 100 = complete kill) at 125 g/ha (corn (Zea mays); Postemergence, visual injury after approximately 10 d, 0 to 100 scale where 0 is no effect and 100 is complete control): 0%
- plant injury at 125 g/ha ([8]; Postemergence, visual injury after approximately 10 d, 0 to 100 scale where 0 is no effect and 100 is complete control, read-out: Plant response rating, Wheat): 0%
- pest or weed control at 125 g/ha ([9]; Postemergence, visual injury after approximately 10 d, 0 to 100 scale where 0 is no effect and 100 is complete control, read-out: Plant response rating, Pigweed): 0%
- pest or weed control at 125 g/ha ([10]; Postemergence, visual injury after approximately 10 d, 0 to 100 scale where 0 is no effect and 100 is complete control, read-out: Plant response rating, Ragweed): 0%
- pest or weed control at 125 g/ha ([11]; Postemergence, visual injury after approximately 10 d, 0 to 100 scale where 0 is no effect and 100 is complete control, read-out: Plant response rating, Ryegrass, Italian): 0%
- pest or weed control at 125 g/ha (Kochia (Kochia scoparia); Postemergence, visual injury after approximately 10 d, 0 to 100 scale where 0 is no effect and 100 is complete control, read-out: Plant response rating, Kochia): 0%
- pest or weed control at 125 g/ha [12, 13]: 80%
- pest or weed control at 500 g/ha ([12]; preemergence, visual injury rating about 10 d after treatment, 0 to 100 scale (0 no effect, 100 complete control), read-out: Barnyardgrass plant response rating): 90%

SMILES: Cc1cc(F)cc([C@H]2CN(C)C(=O)[C@@H]2C(=O)Nc2ccccc2F)c1 [Compound 850]
- pest or weed control at 250 g/ha [1]: 70%
- pest or weed control at 250 g/ha [2]: 0%
- pest or weed control at 250 g/ha [3]: 90%
- pest or weed control at 250 g/ha (rice (Oryra sativa)): 0%
- pest or weed control at 125 g/ha ([4]; postemergence, visual injury rating after approximately 10 d, read-out: Barnyardgrass plant response rating (0 to 100 scale, 0 no effect, 100 complete control)): 90%
- pest or weed control at 125 g/ha ([5]; postemergence, visual injury rating after approximately 10 d, read-out: Foxtail, Giant plant response rating (0 to 100 scale, 0 no effect, 100 complete control)): 80%
- pest or weed control at 125 g/ha ([6]; postemergence, visual injury rating after approximately 10 d, read-out: Blackgrass plant response rating (0 to 100 scale, 0 no effect, 100 complete control)): 0%
- pest or weed control at 125 g/ha ([7]; postemergence, visual injury rating after approximately 10 d, read-out: Galium plant response rating (0 to 100 scale, 0 no effect, 100 complete control)): 30%
- plant injury at 125 g/ha (corn (Zea mays); postemergence, visual injury rating after approximately 10 d, read-out: Corn plant response rating (0 to 100 scale, 0 no effect, 100 complete control)): 30%
- plant injury at 125 g/ha ([8]; postemergence, visual injury rating after approximately 10 d, read-out: Wheat plant response rating (0 to 100 scale, 0 no effect, 100 complete control)): 20%
- pest or weed control at 125 g/ha ([9]; postemergence, visual injury rating after approximately 10 d, read-out: Pigweed plant response rating (0 to 100 scale, 0 no effect, 100 complete control)): 0%
- pest or weed control at 125 g/ha ([10]; postemergence, visual injury rating after approximately 10 d, read-out: Ragweed plant response rating (0 to 100 scale, 0 no effect, 100 complete control)): 0%
- pest or weed control at 125 g/ha ([11]; postemergence, visual injury rating after approximately 10 d, read-out: Ryegrass, Italian plant response rating (0 to 100 scale, 0 no effect, 100 complete control)): 0%
- pest or weed control at 125 g/ha (Kochia (Kochia scoparia); postemergence, visual injury rating after approximately 10 d, read-out: Kochia plant response rating (0 to 100 scale, 0 no effect, 100 complete control)): 0%
- pest or weed control at 125 g/ha [12, 13]: 90%
- pest or weed control at 500 g/ha ([12]; Preemergence, visual injury vs untreated controls after approximately 10 d, read-out: Barnyardgrass plant response rating (0 to 100 scale where 0 is no effect and 100 is complete control)): 90%
